The structures appear in SMILES notation. Like-named read-outs stand apart in the source and are kept apart here.

A short description of the data set: Human liver microsome (HLM) metabolic stability assay. Format: in vitro ADME. The following applies: pooled human liver microsomes, HLM 0.5 mg/mL, test compound 0.5 μM, NADPH, 37° C. The method, then: Microsomal Assay: Human liver microsomes (20 mg/mL) were obtained from Xenotech, LLC (Lenexa, Kans.). β-nicotinamide adenine dinucleotide phosphate, reduced form (NADPH), magnesium chloride (MgCl2), and dimethyl sulfoxide (DMSO) were purchased from Sigma-Aldrich. The incubation mixtures were prepared according to Table 2:
Determination of Metabolic Stability: Two aliquots of this reaction mixture were used for a compound of this invention. The aliquots were incubated in a shaking water bath at 37° C. for 3 minutes. The test compound was then added into each aliquot at a final concentration of 0.5 μM. The reaction was initiated by the addition of cofactor (NADPH) into one aliquot (the other aliquot lacking NADPH served as the negative control). Both aliquots were then incubated in a shaking water bath at 37° C. Fifty microliters (50 μL) of the incubation mixtures were withdrawn in triplicate from each aliquot at 0, 5, 10, 20, and 30 minutes and combined with 50 μL of ice-cold acetonitrile to terminate the reaction. The same procedure was followed for dasatinib and for the positive control, 7-ethoxycoumarin. Testing was done in triplicate.
Data analysis: The in vitro half-lives (t1/2s) for test compounds were calculated from the slopes of the linear regression of % parent remaining (ln) vs incubation time relationship. in vitro t1/2=0.693/k
k=−[slope of linear regression of % parent remaining(ln) vs incubation time]
Data analysis was performed using Microsoft Excel Software.
The metabolic stability of compounds of Formula I was tested using pooled liver microsomal incubations. Full scan LC-MS analysis was then performed to detect major metabolites. Samples of the test compounds, exposed to pooled human liver microsomes, were analyzed using HPLC-MS (or MS/MS) detection. For determining metabolic stability, multiple reaction monitoring (MRM) was used to measure the disappearance of the test compounds. For metabolite detection, Q1 full scans were used as survey scans to detect the major metabolites.

[1] abbreviates: 0-30 minutes, Experiment 1, read-out: t1/2 (min) Experiment 1.
[2] abbreviates: 0-30 minutes, Experiment 2, read-out: t1/2 (min) Experiment 2.
Where [3] appears, read: average of Experiments 1 and 2, read-out: t1/2 (min) Average.

Take `[2H]C1([2H])N(CCO)C([2H])([2H])C([2H])([2H])N(c2cc(Nc3ncc(C(=O)Nc4c(C)cccc4Cl)s3)nc(C)n2)C1([2H])[2H]` [Compound 117, N-(2-Chloro-6-methylphenyl)-2-(6-(4-(2-hydroxyethyl)-(piperazin-d8)-1-yl)-2-methylpyrimidin-4-ylamino)thiazole-5-carboxamide]: the half-life at 0.5 μM reads like this: under setting [1], 19.6 min; under setting [2], 18.5 min; under setting [3], 19.1 min.

Consider `Cc1nc(Nc2ncc(C(=O)Nc3c(C)cccc3Cl)s2)cc(N2CCN(CCO)CC2)n1` [Dasatinib, 2-{6-[4-(2-Hydroxy-ethyl)-piperazin-1-yl]-2-methyl-pyrimidin-4-ylamino}-thiazole-5-carboxylic acid (2-chloro-6-methyl-phenyl)-amide, reference compound], for which the half-life at 0.5 μM came to 16 min under setting [1], 14.6 min under setting [2] and 15.3 min under setting [3].

For the molecule `[2H]C([2H])([2H])c1cccc(Cl)c1NC(=O)c1cnc(Nc2cc(N3C([2H])([2H])C([2H])([2H])N(C([2H])([2H])C([2H])([2H])O)C([2H])([2H])C3([2H])[2H])nc(C)n2)s1` [Compound 115, N-(2-Chloro-6-(methyl-d3)phenyl)-2-(6-(4-(1,1,2,2-d4-2-hydroxyethyl)-(piperazin-d8)-1-yl)-2-methylpyrimidin-4-ylamino)thiazole-5-carboxamide], the half-life at 0.5 μM under setting [1] worked out at 17.3 min, the half-life at 0.5 μM under setting [2] worked out at 18.2 min and the half-life at 0.5 μM under setting [3] is 17.8 min.

Turning to `[2H]C([2H])(O)CN1CCN(c2cc(Nc3ncc(C(=O)Nc4c(Cl)cccc4C([2H])([2H])[2H])s3)nc(C)n2)CC1` [Compound 101, N-(2-Chloro-6-(methyl-d3)phenyl)-2-(6-(4-(2,2-d2-2-hydroxyethyl)piperazin-1-yl)-2-methylpyrimidin-4-ylamino)thiazole-5-carboxamide], the half-life at 0.5 μM is, setting by setting: under setting [1], 17.7 min; under setting [3], 17.9 min.

Consider `[2H]C([2H])([2H])c1cccc(Cl)c1NC(=O)c1cnc(Nc2cc(N3CCN(C([2H])([2H])C([2H])([2H])O)CC3)nc(C)n2)s1` [Compound 103, N-(2-Chloro-6-(methyl-d3)phenyl)-2-(6-(4-(1,1,2,2-d4-2-hydroxyethyl)piperazin-1-yl)-2-methylpyrimidin-4-ylamino)thiazole-5-carboxamide], for which the half-life at 0.5 μM is 19.4 min under setting [1], 17.2 min under setting [2] and 18.3 min under setting [3].

The values above are taken from US8338425B2, “Heterocyclic kinase inhibitors” (Concert Pharmaceuticals, Inc., priority 2007, dated 2012).
